Laboratory results from patent publication US11168052B2, “Carbamate derivative compounds, processes for preparing them and their uses” (BIO-PHARM SOLUTIONS CO., LTD., priority 2016, dated 2021).

Legend:
[1] = system: PTZ (Pentylenetetrazol)-induced clonic seizure in rats; assay: Anti-epilepsy activity, scPTZ test in rats; assay type: in vivo, SD rats
Description: (§1) In this experiment, each test compound sample was formulated as described in Biological Experimental Example 1, and administered intraperitoneally to the test animals (mice; ICR or Rat; SD); Experimental animals, male ICR mice and male SD rats, were purchased from OrientBio or Nara biotech, Korea, and housed 4-5 mice per a cage for 4-5 days. The range of mice body weight was used between 19 and 26 grams and range of rats body weight was used between 100 and 130 grams. After Peak time (0.5, 1, 2 and 4 hr) from the administration, PTZ (Pentylenetetrazol) was administered subcutaneously in the concentration capable of inducing 97% intermittent convulsions (mice: 100-110 mg/kg?bw, 10 μl/g, or rats: 90-110 mg/kg?bw, 2 μl/g). If clonic seizure was not observed for at least 30 minutes in the PTZ administered animal, it can be considered that the test compound has anti-epilepsy activity. The median effective dose (ED50) is determined using 6 animals per a concentration (total three different concentrations), and calculated by Litchfield and Wicoxon log-probit method which is a dose-response relationship.

[2] = system: MES (electroshock) seizure in mice; assay: Anti-epilepsy activity, MES test in mouse; assay type: in vivo, ICR mice
Experimental: (§2) In the MES test (Ref., G. Villetti et al. Neuropharmacology 40(2001) 866-878), an electrical stimulus (mice: 50 mA, 60 Hz, 0.2 sec, and rats: 150 mA, 60 Hz, 0.2 sec in the test animal) supplied by an 11A Shocker (IITC Life Science Company) was delivered through corneal electrodes. All mice or rats assigned to any electroshock at peak time were treated with each test compound sample which was dissolved in 20% tween 80 prepared by saline solvent applied orally before the test. […] Three doses of the test sample were administered orally to 9-18 animals (3-6 mice per dose) for evaluating the respective doses at which 50% of the animals were protected from seizure (ED50). The ED50 value (median effective dose) was calculated by Litchfield and Wicoxon log-probit method which is a dose-response relationship. Experimental animals, male ICR mice and male SD rats, were purchased from OrientBio, Samtako, or Nara Biotech, Korea, and housed in cages (4-5 mice or 3 rats per cage) for 4-5 days. The range of mice body weight was between 19 and 25 grams and range of rats body weight was between 100 and 130 grams.

[3] = system: MES (electroshock) seizure in rats; assay: Anti-epilepsy activity, MES test in rats; assay type: in vivo, SD rats; details: for ED50: Rattus norvegicus, po; for MES test (po) efficacy %: dose 10 mg/kg
Experimental: as §2

[4] = system: CFA-induced pain model in rats; assay: Antiallodynic activity on Complete Freund's Adjuvant (CFA)-induced inflammatory pain model; assay type: in vivo, Sprague-Dawley rats; details: 50 mg/kg intraperitoneally, von Frey threshold relative to sham, 0.5 hr after administration; for response vs control in vivo at 50 mg/kg: Rattus norvegicus, ip, read-out: Efficacy of 50 mg/kg(%)
Experimental: Male, Sprague-Dawley rats (210-250 g, Nara Bio, Korea) were habituated for 1 week before surgery and allowed free access to food and water throughout the experimentation. Room temperature and humidity were maintained at 24±2 and 50±10%, respectively.
CFA-induced inflammatory pain was induced by the procedure of Nagakura et al. (2003) and Gregory P. et al. (2010) with minor modifications. CFA (sigma, USA) was injected in the right plantar with a 100 ul volume under gaseous anesthesia with isoflurane. Sham controls were injected with 100 ul of saline, and preparation of the vehicle controls were identical to the group treated with compound, except for administration of vehicles without indentical to the vihecle control group.
Tactile sensitivity (Mechanical allodynia) was evaluated using von Frey monofilaments before and after treatment, and animals were include in the study only if the withdrawal threshold value was less than 4 g. One week after CFA injection, CFA-infused animals, sham-operated animal, and vehicle-operated animals were tested for tactile sensitivity with von Frey monofilaments, with 3 trials for each animal. All Animals were placed in a stainless steel mashe chamber and habituated for 30 min in the test cage. The tactile sensitivity for ipsilateral hind paw was measured using the up-and-down method (Dixon, 1980) with seven von Frey monofilaments (0.4, 1, 2, 4, 6, 8, and 15 g) to 3 trials. The tactile sensitivity test was followed by Dixon's method (Dixon, 1980). The 50% paw withdrawal threshold for each paw was calculated using the following formula: [Xth]log=[vFr]log+ky where [vFr] is the force of the last von Frey used, k=0.2249 which is the average interval (in log units) between the von Frey monofilaments, and y is a value that depends upon the pattern of withdrawal responses (Dixon, 1980).
Antiallodynic effect of compounds was evaluated at the dose of 50 mg/kg (n=4-6), intraperitoneally administrated in a volume of 5 ul/g bw in a vehicle of 30% (v/v) PEG or 20% (v/v) Tween 80. The test was performed peak time of efficacy (0.5 hr) after compound administration.
The relative values compared to the sham (% control) were calculated and shown in Table 5, which show an antiallodynic effect of Compound 1 on CFA-induced pain model in rats.

[5] = system: PTZ (Pentylenetetrazol)-induced clonic seizure in mice; assay: Anti-epilepsy activity, scPTZ test in mouse; assay type: in vivo, ICR mice
Description: as §1

[6] = system: Lithium-pilocarpine induced seizure in rats; assay: Lithium-pilocarpine induced epilepsy test (LI-PILO), prevention test; assay type: in vivo, Sprague-Dawley rats; details: i.p.
Experimental: Male Sprague-Dawley rats (purchased from Orient Bio Inc. Korea) of body weight 175 grams were used for these studies and 3 rats per cage were housed for 4-5 days. On the day prior to SE, rats received 127 mg/kg lithium chloride (Sigma, St. Louis, Mo., U.S.A.) intraperitoneally (i.p.). Approximately 18-20 h following this treatment, rats were given an i.p. injection of the concentration capable of inducing 97% intermittent convulsions pilocarpine(Sigma, 30-43 mg/kg). An i.p. injection of 2 mg/kg methyl-scopolamine (Sigma) was administered 30 min prior to pilocarpine to block the effects of the muscarinic agonist on peripheral cholinergic receptors. Test drugs were dissolved in 20% tween80 (Sigma).
The drugs were administered intraperitoneally (i.p.) in a volume of 2 μl/g body weight. Pharmacological effects of all of the test materials were evaluated to compare test groups (n=6) with a control group (n=6). Control group was administered vehicle only. The efficacy was measured 0.5, 1, 2, or 4 hours after the administration of the test material. The time point that the most animals were protected was defined as peak time and the ED50 was determined at peak time. The animals were then transferred to observation cages and observed continuously for 90 min Seizure was elicited in approximately 95% of the control group. Protection was defined as complete absence of seizure grade 3-5 (Racine scale; Racine, 1972) over the 90-min observation period. The effective dose of the compound necessary to protect 50% of the animals against seizures compared to controls (i.e., ED50) was determined by a curve fitting program (Excel 2007, Microsoft).

[7] = system: acetic acid-induced writhes in ICR mice; assay: Writhing test (acetic acid); assay type: in vivo; details: Mus musculus, po
Experimental: To examine the pain relief effect of the carbamate compounds, a writhing test was conducted, referring to Fischer, L. G. et al. (2008).
ICR mice (male, 24-28g; Orient Bio, Korea) were habituated before test (in test room) for 1 hour. Animals were fasted 2 hr before administration of compounds. Each of compounds was orally administered at the three dose, 10 ul/g, bw (n=3-5/group). All compounds were dissolved in a vehicle of 30% (v/v) PEG 400 or 20% (v/v) Tween 80. The control group was treated the vehicle without compounds.
0.2-2 hour after the administration of compounds, 0.6% acetic acid at the dose of 10 ul/g by bodyweight was injected into the mice Animals were habituated in the cage for 5 min. 5 min after habituation, the number of writhes (abdominal constriction) was counted for 15 min, referring to Korzeniewska-Rybicka, I. et al. (1998) and compared with that of a control.
The relative values compared to the control (% control) were calculated and shown in […]

[8] = system: ICR mice, tail-flick analgesia meter; assay: Tail-flick test; assay type: in vivo; details: orally, withdrawal latency
Experimental: To examine the pain relief effect of the carbamate compounds, a tail-flick test was conducted, referring to Current Protocols in Neuroscience; Behavioral Neuroscience Unit 8.9.
ICR mice (male, 25-30g; Orient Bio, Korea) were habituated before test (in test room) for 1 hour. Animals were fasted 2 hr before administration of compounds. Each of Compound was orally administered at the 1-3 dose, 10 ul/g, by bodyweight (n=4-6/group). All compounds were dissolved in a vehicle of 30% (v/v) PEG 400 or 20% (v/v) Tween 80. The control group was treated the vehicle without compounds.
After the administration of compounds, the mice tail were put on a tail-flick analgesia meter. To avoid tissue damage, maximal exposure time to pain stimuli was restricted to 15 s. The withdrawal latency was measured to the time to the point when each mouse responded. The relative values compared to the control (% control) were calculated.
The relative values compared to the sham were calculated and shown in Table 7, which show effect of the compound of examples on tail-flick test in Mice.

[9] = po, read-out: MES test (po) efficacy %

With `NC(=O)O[C@@H]1Cc2cccc(Cl)c2[C@@H]1O` [Example 51, (1S, 2R)-7-chloro-1-hydroxy-2,3-dihydro-1H-inden-2-yl carbamate] the “scPTZ test (ip) efficacy %” value ([1]; dose 100 mg/kg) was 100 (33.3%,, the ED50 ([2]; po) was 37 mg/kg and the ED50 [3] was 17.1 mg/kg. The response vs control in vivo at 50 mg/kg [4] was 40.1%.
In the case of “8-chloro-1-hydroxy-1,2,3,4-tetrahydronaphthalen-2-yl carbamate (mixture of SR & RS) [Example 3]”, the “PTZ test (ip) ED50” value [5] is reported as 25.2 mg/kg, the “MES test (po) ED50” value [2] is reported as 27.3 mg/kg and the “MES test (po) ED50” value [3] is reported as 12.1 mg/kg. For the same molecule, the “Efficacy of 50 mg/kg(%)” value [4] was 22.9%.
For `NC(=O)O[C@H]1CCc2cccc(Cl)c2[C@@H]1O` [Example 5, (1S, 2S)-8-chloro-1-hydroxy-1,2,3,4-tetrahydronaphthalen-2-yl carbamate], the “PTZ test (ip) efficacy %” value ([5]; dose 100 mg/kg) was 100(16.6%), the responders at 100 mg/kg [2, 9] was 100% and the response vs control in vivo at 50 mg/kg [4] was 30%.
In the case of `NC(=O)O[C@H]1c2c(Cl)cccc2CC[C@H]1O` [Example 18, (1S, 2R)-8-chloro-2-hydroxy-1,2,3,4-tetrahydronaphthalen-1-yl carbamate], the “scPTZ test (ip) efficacy %” value ([1]; dose 50 mg/kg) is reported as 50 (33.3%,, the “Lithium pilocarpine model (pre) efficacy %” value ([6]; dose 100 mg/kg) is reported as 16.6% and the ED50 ([2]; po) is reported as 45.8 mg/kg. For the same molecule, the ED50 [7] was 55.6 mg/kg, the ED50 [3] was 18.8 mg/kg and the response vs control in vivo at 50 mg/kg [4] was 50.2%.
`NC(=O)O[C@@H]1Cc2cccc(F)c2[C@@H]1O` [Example 55, (1S, 2R)-7-fluoro-1-hydroxy-2,3-dihydro-1H-inden-2-yl carbamate] was tested, and the “Lithium pilocarpine model (pre) efficacy %” value ([6]; dose 100 mg/kg) was 33.3%, the ED50 ([2]; po) was 51.9 mg/kg and the response vs control in vivo at 50 mg/kg [4] was 34.4%.
With `NC(=O)O[C@H]1c2c(F)cccc2CC[C@H]1O` [Example 25, (1S, 2R)-8-fluoro-2-hydroxy-1,2,3,4-tetrahydronaphthalen-1-yl carbamate] the “Lithium pilocarpine model (pre) efficacy %” value ([6]; dose 10 mg/kg) was 33.3%, the responders at 50 mg/kg ([2]; po, dose 50 mg/kg, read-out: MES test (po) efficacy %) was 75% and the “MES test (po) efficacy %” value [3] was 33.3%.
In the case of `NC(=O)O[C@H]1Cc2cccc(Cl)c2[C@@H]1O` [Example 54, (1S, 2S)-7-chloro-1-hydroxy-2,3-dihydro-1H-inden-2-yl carbamate], the “Tail-flick test Dose” value [8] is reported as over 200 mg/kg, the “Lithium pilocarpine model (pre) efficacy %” value ([6]; dose 100 mg/kg) is reported as 83.3% and the ED50 ([2]; po) is reported as 26.7 mg/kg. The “MES test (po) efficacy %” value [3] was 33.3%.
In the case of `NC(=O)O[C@@H]1CCc2cccc(F)c2[C@@H]1O` [Example 10, (1S, 2R)-8-fluoro-1-hydroxy-1,2,3,4-tetrahydronaphthalen-2-yl carbamate], the “Lithium pilocarpine model (pre) efficacy %” value ([6]; dose 100 mg/kg) is reported as 66.6%, the responders at 100 mg/kg [2, 9] is reported as 100% and the ED50 [3] is reported as 17.5 mg/kg. For the same molecule, the response vs control in vivo at 50 mg/kg [4] was 35.2%.
`NC(=O)O[C@@H]1c2c(Cl)cccc2C[C@@H]1O` [Example 64, (1R, 2S)-7-chloro-2-hydroxy-2,3-dihydro-1H-inden-1-yl carbamate] was tested, and the “Tail-flick test Dose” value [8] was over 200 mg/kg, the “scPTZ test (ip) efficacy %” value ([1]; dose 50 mg/kg) was 50% and the “Lithium pilocarpine model (pre) efficacy %” value ([6]; dose 100 mg/kg) was 50%. The ED50 ([2]; po) was 48.4 mg/kg, the ED50 [3] was 17.8 mg/kg and the response vs control in vivo at 50 mg/kg [4] was 43.7%.
In the case of `NC(=O)O[C@H]1c2c(Cl)cccc2C[C@H]1O` [Example 63, (1S, 2R)-7-chloro-2-hydroxy-2,3-dihydro-1H-inden-1-yl carbamate], the “scPTZ test (ip) efficacy %” value ([1]; dose 100 mg/kg) is reported as 100 (83.3%,, the ED50 ([2]; po) is reported as 51.9 mg/kg and the ED50 [3] is reported as 19.1 mg/kg. The response vs control in vivo at 50 mg/kg [4] was 53.1%.
